Test [1] deals with Klebsiella pneumoniae. Briefly: Antibacterial activity against Klebsiella pneumoniae urine isolate A28009 PFGE pattern A expressing KPC-2, TEM-1, SHV-11, CTX-M-2 beta-lactamase by agar dilution method. The test is classed as functional. (In agar dilution the substance is mixed into plates at graded concentrations.)
In test [2] the test system is Escherichia coli. Briefly: microbe, parasite or virus in culture. As to conditions: K-12 DH10B.
Description: (§1) Antibacterial activity against Escherichia coli DH10B expressing KPC-2 CTX-M-2 by agar dilution method
The test system of test [3] is Klebsiella pneumoniae. Briefly: Antibacterial activity against Klebsiella pneumoniae blood isolate A28006 PFGE pattern A expressing KPC-2, TEM-1, SHV-11, CTX-M-2 beta-lactamase by agar dilution method. Type of test: functional.
Test [4] has as its system Klebsiella pneumoniae. Briefly: Antibacterial activity against Klebsiella pneumoniae blood isolate A28008 PFGE pattern A expressing KPC-2, TEM-1, SHV-11, CTX-M-2 beta-lactamase by agar dilution method. Type of test: functional.
Test [5] relates to Escherichia coli. Briefly: Antibacterial activity against Escherichia coli DH10B by agar dilution method. The test is classed as functional. As to conditions: K-12 DH10B.
In test [6] the test system is Klebsiella pneumoniae. Briefly: Antibacterial activity against Klebsiella pneumoniae urine isolate A28011 PFGE pattern A expressing KPC-2 CTX-M-2 beta-lactamase by agar dilution method. The test is classed as functional.
Test [7] deals with Escherichia coli. As to conditions: K-12 DH10B.
Description: as §1
In test [8] the test system is Klebsiella pneumoniae. The test is described as follows: Antibacterial activity against Klebsiella pneumoniae blood isolate A28008 PFGE pattern A expressing KPC-2, TEM-1, SHV-11, CTX-M-2 beta-lactamase by Etest method. The test is classed as functional.
For test [9], the system named is Escherichia coli. The test is described as follows: Antibacterial activity against Escherichia coli DH10B by Etest method. The test is classed as functional. The following applies: K-12 DH10B.
The subject of test [10] is Klebsiella pneumoniae. The test is described as follows: Antibacterial activity against Klebsiella pneumoniae blood isolate A28006 PFGE pattern A expressing KPC-2, TEM-1, SHV-11, CTX-M-2 beta-lactamase by Etest method. Type of test: functional.
Test [11] concerns Klebsiella pneumoniae. Briefly: Antibacterial activity against Klebsiella pneumoniae urine isolate A28009 PFGE pattern A expressing KPC-2, TEM-1, SHV-11, CTX-M-2 beta-lactamase by Etest method. The test is classed as functional.
Test [12] concerns Klebsiella pneumoniae. The test is described as follows: Antibacterial activity against Klebsiella pneumoniae urine isolate A28011 PFGE pattern A expressing KPC-2, CTX-M-2 beta-lactamase by Etest method. Type of test: functional.
The subject of test [13] is Escherichia coli. The test is described as follows: Antibacterial activity against Escherichia coli DH10B expressing KPC-2 CTX-M-2 by Etest method. The test is classed as functional. The following applies: K-12 DH10B.
Test [14] has as its system Klebsiella pneumoniae. Briefly: Antibacterial activity against Klebsiella pneumoniae blood isolate A28008 PFGE pattern A expressing KPC-2, TEM-1, SHV-11, CTX-M-2 beta-lactamase by agar dilution method in presence of Tazobactam. The test is classed as functional.
Test [15] has as its system Klebsiella pneumoniae. Briefly: Antibacterial activity against Klebsiella pneumoniae blood isolate A28006 PFGE pattern A expressing KPC-2, TEM-1, SHV-11, CTX-M-2 beta-lactamase by agar dilution method in presence of Tazobactam. The test is classed as functional.
Test [16] deals with Klebsiella pneumoniae. Briefly: Antibacterial activity against Klebsiella pneumoniae urine isolate A28011 PFGE pattern A expressing KPC-2, CTX-M-2 beta-lactamase by agar dilution method in presence of Tazobactam. Type of test: functional.
Test [17] has as its system Klebsiella pneumoniae. The test is described as follows: Antibacterial activity against Klebsiella pneumoniae urine isolate A28009 PFGE pattern A expressing KPC-2, TEM-1, SHV-11, CTX-M-2 beta-lactamase by agar dilution method in presence of Tazobactam. The test is classed as functional.

This is an account of results in ChEMBL document CHEMBL1275583, “First report of KPC-2-producing Klebsiella pneumoniae strains in Brazil” (2009).

≈ marks a conversion by molar mass, not a printed value. Where only a bound is given, the exact number is not on record here.

Turning to `CO/N=C(\C(=O)N[C@@H]1C(=O)N2C(C(=O)O)=C(COC(C)=O)CS[C@H]12)c1csc(N)n1` [CEFOTAXIME], the MIC against Klebsiella pneumoniae [1] was greater than 256 µg/mL; in the test with Escherichia coli [2] it was 4 µg/mL (≈ 8.78 µM); in the test on Klebsiella pneumoniae [3], greater than 256 µg/mL; in the test with Klebsiella pneumoniae [4], greater than 256 µg/mL; against Escherichia coli [5], less than 0.25 µg/mL; against Klebsiella pneumoniae [6], greater than 256 µg/mL.
As for POLYMYXIN B, the MIC against Klebsiella pneumoniae [1] was found to be 2 µg/mL; in the test with Klebsiella pneumoniae [3], 2 µg/mL; in the test with Klebsiella pneumoniae [4], 2 µg/mL; in the test with Escherichia coli [5], 0.38 µg/mL; in the test with Klebsiella pneumoniae [6], 2 µg/mL; in the test on Escherichia coli [7] it was 0.38 µg/mL.
In the case of `C[C@@H](O)[C@H]1C(=O)N2C(C(=O)O)=C(S[C@@H]3CN[C@H](C(=O)N(C)C)C3)[C@H](C)[C@H]12` [MEROPENEM], the MIC against Klebsiella pneumoniae [1] was greater than 32 µg/mL; against Escherichia coli [2], 0.5 µg/mL (≈ 1.3 µM); against Klebsiella pneumoniae [3], 32 µg/mL (≈ 83.4 µM); with Klebsiella pneumoniae [4], 4 µg/mL (≈ 10.4 µM); against Escherichia coli [5] it was 0.25 µg/mL (≈ 0.652 µM); against Klebsiella pneumoniae [6], greater than 32 µg/mL.
Consider `C[C@H]1[C@H](NC(=O)/C(=N\OC(C)(C)C(=O)O)c2csc(N)n2)C(=O)N1S(=O)(=O)O` [AZTREONAM], for which the MIC in the test on Klebsiella pneumoniae [1] is greater than 256 µg/mL; in the test with Escherichia coli [2], 32 µg/mL (≈ 73.5 µM); against Klebsiella pneumoniae [4], 64 µg/mL (≈ 147 µM); against Klebsiella pneumoniae [6], greater than 256 µg/mL.
Turning to `CO/N=C(\C(=O)N[C@@H]1C(=O)N2C(C(=O)O)=C(CSc3nc(=O)c(O)nn3C)CS[C@H]12)c1csc(N)n1` [CEFTRIAXONE], the MIC in the test on Klebsiella pneumoniae [1] was greater than 256 µg/mL; with Escherichia coli [2] it was greater than 256 µg/mL; with Klebsiella pneumoniae [3], greater than 256 µg/mL; against Klebsiella pneumoniae [4], greater than 256 µg/mL; against Escherichia coli [5], 0.06 µg/mL (≈ 0.108 µM); in the test on Klebsiella pneumoniae [6], greater than 256 µg/mL.
As to `CN(C)c1cc(NC(=O)CNC(C)(C)C)c(O)c2c1C[C@H]1C[C@H]3[C@H](N(C)C)C(O)=C(C(N)=O)C(=O)[C@@]3(O)C(O)=C1C2=O` [TIGECYCLINE], the MIC in the test on Klebsiella pneumoniae [8] turned out to be 0.38 µg/mL (≈ 0.649 µM); against Escherichia coli [9] it was 0.06 µg/mL (≈ 0.102 µM); in the test on Klebsiella pneumoniae [10], 0.38 µg/mL (≈ 0.649 µM); against Klebsiella pneumoniae [11], 0.38 µg/mL (≈ 0.649 µM); with Klebsiella pneumoniae [12], 0.5 µg/mL (≈ 0.854 µM); with Escherichia coli [13], 0.06 µg/mL (≈ 0.102 µM).
As for `CCN1CCN(C(=O)N[C@@H](C(=O)N[C@@H]2C(=O)N3[C@@H]2SC(C)(C)[C@@H]3C(=O)O)c2ccccc2)C(=O)C1=O` [PIPERACILLIN], the MIC with Klebsiella pneumoniae [14] was 16 µg/mL; in the test on Klebsiella pneumoniae [15], 16 µg/mL; in the test with Klebsiella pneumoniae [16] it was 8 µg/mL; in the test on Klebsiella pneumoniae [17], 16 µg/mL.
For the molecule GENTAMICIN, the MIC is 1 µg/mL in the test with Klebsiella pneumoniae [1]; 1 µg/mL against Klebsiella pneumoniae [3]; 1 µg/mL in the test with Klebsiella pneumoniae [4]; 0.12 µg/mL against Escherichia coli [5]; 1 µg/mL in the test with Klebsiella pneumoniae [6]; 0.12 µg/mL against Escherichia coli [7].
For the molecule `CO[C@@]1(NC(=O)Cc2cccs2)C(=O)N2C(C(=O)O)=C(COC(N)=O)CS[C@@H]21` [CEFOXITIN], the MIC was 64 µg/mL (≈ 150 µM) in the test with Klebsiella pneumoniae [1]; 8 µg/mL (≈ 18.7 µM) in the test on Escherichia coli [2]; 32 µg/mL (≈ 74.9 µM) in the test on Klebsiella pneumoniae [3]; 16 µg/mL (≈ 37.4 µM) in the test with Klebsiella pneumoniae [4]; 4 µg/mL (≈ 9.36 µM) against Escherichia coli [5]; greater than 256 µg/mL in the test with Klebsiella pneumoniae [6].
For the molecule `CO/N=C(\C(=O)N[C@@H]1C(=O)N2C(C(=O)[O-])=C(C[N+]3(C)CCCC3)CS[C@H]12)c1csc(N)n1`, the MIC against Klebsiella pneumoniae [1] is 64 µg/mL (≈ 133 µM); in the test on Escherichia coli [2] it was 2 µg/mL (≈ 4.16 µM); against Klebsiella pneumoniae [3], 128 µg/mL (≈ 266 µM); against Klebsiella pneumoniae [4] it was 32 µg/mL (≈ 66.6 µM); in the test with Escherichia coli [5], 0.25 µg/mL (≈ 0.52 µM); in the test with Klebsiella pneumoniae [6], greater than 256 µg/mL.
Take `C[C@@H](O)[C@H]1C(=O)N2C(C(=O)O)=C(SCCNC=N)C[C@H]12` [IMIPENEM ANHYDROUS]: the MIC in the test with Klebsiella pneumoniae [1] is 32 µg/mL (≈ 107 µM); in the test with Escherichia coli [2], 2 µg/mL (≈ 6.68 µM); with Klebsiella pneumoniae [3] it was 4 µg/mL (≈ 13.4 µM); in the test on Klebsiella pneumoniae [4], 32 µg/mL (≈ 107 µM); against Klebsiella pneumoniae [6], 16 µg/mL (≈ 53.4 µM).
Take `CC(C)(O/N=C(\C(=O)N[C@@H]1C(=O)N2C(C(=O)[O-])=C(C[n+]3ccccc3)CS[C@H]12)c1csc(N)n1)C(=O)O` [CEFTAZIDIME]: the MIC with Klebsiella pneumoniae [1] is 32 µg/mL (≈ 58.5 µM); against Escherichia coli [2], 4 µg/mL (≈ 7.32 µM); against Klebsiella pneumoniae [3] it was 16 µg/mL (≈ 29.3 µM); in the test with Klebsiella pneumoniae [4], 16 µg/mL (≈ 29.3 µM); in the test on Escherichia coli [5], 0.25 µg/mL (≈ 0.457 µM); against Klebsiella pneumoniae [6], 64 µg/mL (≈ 117 µM).
